Measured values as given in patent US20130072430A1, “METHODS FOR TREATMENT OR PROPHYLAXIS OF KIDNEY OR LIVER DYSFUNCTION” (NPS PHARMACEUTICALS, INC., priority 2010, published 2013).

Tested on: Human patients with short bowel syndrome
Assay: Example 1: liver diagnostic biomarkers (total bilirubin, ALT, AST, ALP) in short bowel syndrome patients, every four weeks for 24 weeks
Assay type: in vivo
Design: AST (SGOT) Change from Baseline, Median / ALT (SGPT), Median / TOTAL BILIRUBIN, Median / TOTAL BILIRUBIN Change from Baseline, Median / ALT (SGPT) Change from Baseline, Median / AST (SGOT), Median: unit not given here
Protocol: Human patients with short bowel syndrome were divided into three groups: a control group (16 total individuals) to receive placebo, an experimental group (35 total individuals) to receive teduglutide at 0.05 mg/kg/day throughout the study, and an experimental group (32 total individuals) to receive teduglutide at 0.1 mg/kg/day throughout the study. Patients were treated by subcutaneous injection of placebo or the appropriate dose of teduglutide. As individuals with short bowel syndrome are likely to experience associated liver and kidney disease, known biomarkers of liver and kidney function were monitored every four weeks, for 24 weeks. The liver biomarkers tested included total bilirubin, ALT and AST and ALP. The kidney biomarkers tested included urea nitrogen, creatinine and GFR. Before administration of placebo or teduglutide, diagnostic biomarker levels were tested to establish a baseline for each individual.
To visualize the effect of GLP-2 on the levels of the diagnostic biomarkers, the average change from baseline was calculated for the placebo and teduglutide treated groups for each visit after a baseline was established. The average change from baseline of each group is depicted in FIGS. […]. The numerical figures for each diaanostic biomarker at each time point are depicted in Table 1.
The efficacy of teduglutide in treating liver dysfunction was further tested by sorting the data into two groups: individuals with abnormal baseline values of liver diagnostic biomarkers; and individuals with normal baseline values of liver diagnostic biomarkers. The mean diagnostic biomarker change from baseline for these two groups is shown for ALT (FIGS. 5 and 6) and AST (FIGS. 7 and 8). […] These changes were significant when compared to baseline levels for the group, and when compared to placebo (see FIGS. 5 and 7).
The raw data for this sorting is reproduced in Table 2 below.

`CC[C@H](C)[C@H](NC(=O)[C@H](Cc1ccccc1)NC(=O)[C@H](CC(=O)O)NC(=O)[C@H](CCCNC(=N)N)NC(=O)[C@H](C)NC(=O)[C@H](C)NC(=O)[C@H](CC(C)C)NC(=O)[C@H](CC(N)=O)NC(=O)[C@H](CC(=O)O)NC(=O)[C@H](CC(C)C)NC(=O)[C@@H](NC(=O)[C@@H](NC(=O)[C@H](CC(N)=O)NC(=O)[C@H](CCSC)NC(=O)[C@H](CCC(=O)O)NC(=O)[C@H](CC(=O)O)NC(=O)[C@H](CO)NC(=O)[C@H](Cc1ccccc1)NC(=O)[C@H](CO)NC(=O)CNC(=O)[C@H](CC(=O)O)NC(=O)CNC(=O)[C@@H](N)Cc1c[nH]cn1)[C@@H](C)O)[C@@H](C)CC)C(=O)N[C@@H](CC(N)=O)C(=O)N[C@@H](Cc1c[nH]c2ccccc12)C(=O)N[C@@H](CC(C)C)C(=O)N[C@H](C(=O)N[C@@H](CCC(N)=O)C(=O)N[C@H](C(=O)N[C@@H](CCCCN)C(=O)N[C@H](C(=O)N[C@H](C(=O)N[C@@H](CC(=O)O)C(=O)O)[C@@H](C)O)[C@@H](C)CC)[C@@H](C)O)[C@@H](C)CC` [teduglutide] was tested, and the “ALT (SGPT) Change from Baseline, Median” value (0.05 mg/kg/day, DW24) was −5.0, the “ALT (SGPT), Mean (SD)” value (0.05 mg/kg/day, DW24) was 31.7 (26.63) and the “ALT (SGPT), Median” value (0.05 mg/kg/day, DW24) was 20.0. The “AST (SGOT) Change from Baseline, Mean (SD)” value (shortened to “AST (SGOT) Change … (SD)”) (0.05 mg/kg/day, DW24) was −6.8 (14.29), the “AST (SGOT) Change from Baseline, Median” value (0.05 mg/kg/day, DW24) was −4.5 and the “AST (SGOT), Mean (SD)” value (0.05 mg/kg/day, DW24) was 27.7 (10.23). For the same compound, the “AST (SGOT), Median” value (0.05 mg/kg/day, DW24) was 25.0, the “TOTAL BILIRUBIN Change from Baseline, Mean (SD)” value (“TOTAL BILIRUBIN Change … (SD)” for short) (0.05 mg/kg/day, DW24) was −0.5 (7.11) and the “TOTAL BILIRUBIN Change from Baseline, Median” value (0.05 mg/kg/day, DW24) was 0.0. For the same compound, the “TOTAL BILIRUBIN, Mean (SD)” value (0.05 mg/kg/day, DW24) was 10.0 (6.28), the “TOTAL BILIRUBIN, Median” value (0.05 mg/kg/day, DW24) was 8.0 and the “ALKALINE PHOSPHATASE Change from Baseline, Mean (SD)” value (“ALKALINE PHOSPHATASE Change … (SD)” below) (0.10 mg/kg/day, DW4) was −11.3 (32.19). The “ALKALINE PHOSPHATASE Change from Baseline, Median” value (0.10 mg/kg/day, DW4) was −10.5, the “ALKALINE PHOSPHATASE, Mean (SD)” value (0.10 mg/kg/day, DW4) was 147.5 (74.98) and the “ALKALINE PHOSPHATASE, Median” value (0.10 mg/kg/day, DW4) was 124.0. The “ALT (SGPT) Change from Baseline, Mean (SD)” value (“ALT (SGPT) Change … (SD)” below) (0.10 mg/kg/day, DW4) was −11.6 (22.98), the “ALT (SGPT) Change from Baseline, Median” value (0.10 mg/kg/day, DW4) was −6.5 and the “ALT (SGPT), Mean (SD)” value (0.10 mg/kg/day, DW4) was 38.6 (23.30). For the same compound, the “ALT (SGPT), Median” value (0.10 mg/kg/day, DW4) was 30.0, the “AST (SGOT) Change … (SD)” value (0.10 mg/kg/day, DW4) was −7.3 (15.21) and the “AST (SGOT) Change from Baseline, Median” value (0.10 mg/kg/day, DW4) was −5.0. The “AST (SGOT), Mean (SD)” value (0.10 mg/kg/day, DW4) was 33.5 (17.00), the “AST (SGOT), Median” value (0.10 mg/kg/day, DW4) was 28.0 and the “TOTAL BILIRUBIN Change … (SD)” value (0.10 mg/kg/day, DW4) was −4.0 (17.41). The “TOTAL BILIRUBIN Change from Baseline, Median” value (0.10 mg/kg/day, DW4) was −1.0, the “TOTAL BILIRUBIN, Mean (SD)” value (0.10 mg/kg/day, DW4) was 9.0 (5.65) and the “TOTAL BILIRUBIN, Median” value (0.10 mg/kg/day, DW4) was 7.0. The “ALKALINE PHOSPHATASE Change … (SD)” value (0.10 mg/kg/day, DW8) was −21.2 (41.41), the “ALKALINE PHOSPHATASE Change from Baseline, Median” value (0.10 mg/kg/day, DW8) was −20.0 and the “ALKALINE PHOSPHATASE, Mean (SD)” value (0.10 mg/kg/day, DW8) was 139.2 (75.84). The “ALKALINE PHOSPHATASE, Median” value (0.10 mg/kg/day, DW8) was 114.0, the “ALT (SGPT) Change … (SD)” value (0.10 mg/kg/day, DW8) was −15.7 (26.87) and the “ALT (SGPT) Change from Baseline, Median” value (0.10 mg/kg/day, DW8) was −8.0. For the same compound, the “ALT (SGPT), Mean (SD)” value (0.10 mg/kg/day, DW8) was 34.1 (19.74), the “ALT (SGPT), Median” value (0.10 mg/kg/day, DW8) was 28.5 and the “AST (SGOT) Change … (SD)” value (0.10 mg/kg/day, DW8) was −10.3 (16.56). The “AST (SGOT) Change from Baseline, Median” value (0.10 mg/kg/day, DW8) was −5.0, the “AST (SGOT), Mean (SD)” value (0.10 mg/kg/day, DW8) was 29.3 (12.52) and the “AST (SGOT), Median” value (0.10 mg/kg/day, DW8) was 28.0. For the same compound, the “TOTAL BILIRUBIN Change … (SD)” value (0.10 mg/kg/day, DW8) was −3.8 (13.91), the “TOTAL BILIRUBIN Change from Baseline, Median” value (0.10 mg/kg/day, DW8) was −1.0 and the “TOTAL BILIRUBIN, Mean (SD)” value (0.10 mg/kg/day, DW8) was 9.4 (9.80). For the same compound, the “TOTAL BILIRUBIN, Median” value (0.10 mg/kg/day, DW8) was 7.0, the “ALKALINE PHOSPHATASE Change … (SD)” value (0.10 mg/kg/day, DW12) was −13.1 (55.43) and the “ALKALINE PHOSPHATASE Change from Baseline, Median” value (0.10 mg/kg/day, DW12) was −16.5. For the same compound, the “ALKALINE PHOSPHATASE, Mean (SD)” value (0.10 mg/kg/day, DW12) was 145.9 (83.34), the “ALKALINE PHOSPHATASE, Median” value (0.10 mg/kg/day, DW12) was 115.0 and the “ALT (SGPT) Change … (SD)” value (0.10 mg/kg/day, DW12) was −10.6 (30.82). For the same compound, the “ALT (SGPT) Change from Baseline, Median” value (0.10 mg/kg/day, DW12) was −11.0, the “ALT (SGPT), Mean (SD)” value (0.10 mg/kg/day, DW12) was 40.4 (22.11) and the “ALT (SGPT), Median” value (0.10 mg/kg/day, DW12) was 35.0. The “AST (SGOT) Change … (SD)” value (0.10 mg/kg/day, DW12) was −3.3 (21.39), the “AST (SGOT) Change from Baseline, Median” value (0.10 mg/kg/day, DW12) was −3.5 and the “AST (SGOT), Mean (SD)” value (0.10 mg/kg/day, DW12) was 36.4 (20.41). For the same compound, the “AST (SGOT), Median” value (0.10 mg/kg/day, DW12) was 31.5, the “TOTAL BILIRUBIN Change … (SD)” value (0.10 mg/kg/day, DW12) was −2.9 (12.93) and the “TOTAL BILIRUBIN Change from Baseline, Median” value (0.10 mg/kg/day, DW12) was 0.0. For the same compound, the “TOTAL BILIRUBIN, Mean (SD)” value (0.10 mg/kg/day, DW12) was 10.3 (11.39), the “TOTAL BILIRUBIN, Median” value (0.10 mg/kg/day, DW12) was 7.0 and the “ALKALINE PHOSPHATASE Change … (SD)” value (0.10 mg/kg/day, DW16) was −21.3 (59.79). The “ALKALINE PHOSPHATASE Change from Baseline, Median” value (0.10 mg/kg/day, DW16) was −20.5, the “ALKALINE PHOSPHATASE, Mean (SD)” value (0.10 mg/kg/day, DW16) was 137.7 (81.33) and the “ALKALINE PHOSPHATASE, Median” value (0.10 mg/kg/day, DW16) was 108.5. The “ALT (SGPT) Change … (SD)” value (0.10 mg/kg/day, DW16) was −10.0 (35.59), the “ALT (SGPT) Change from Baseline, Median” value (0.10 mg/kg/day, DW16) was −10.0 and the “ALT (SGPT), Mean (SD)” value (0.10 mg/kg/day, DW16) was 39.7 (27.97). The “ALT (SGPT), Median” value (0.10 mg/kg/day, DW16) was 30.0, the “AST (SGOT) Change … (SD)” value (0.10 mg/kg/day, DW16) was −6.6 (22.80) and the “AST (SGOT) Change from Baseline, Median” value (0.10 mg/kg/day, DW16) was −4.0. For the same compound, the “AST (SGOT), Mean (SD)” value (0.10 mg/kg/day, DW16) was 33.0 (16.71), the “AST (SGOT), Median” value (0.10 mg/kg/day, DW16) was 30.0 and the “TOTAL BILIRUBIN Change … (SD)” value (0.10 mg/kg/day, DW16) was −3.6 (14.89). For the same compound, the “TOTAL BILIRUBIN Change from Baseline, Median” value (0.10 mg/kg/day, DW16) was −0.5, the “TOTAL BILIRUBIN, Mean (SD)” value (0.10 mg/kg/day, DW16) was 9.8 (9.14) and the “TOTAL BILIRUBIN, Median” value (0.10 mg/kg/day, DW16) was 7.5. For the same compound, the “ALKALINE PHOSPHATASE Change … (SD)” value (0.10 mg/kg/day, DW20) was −18.5 (63.67), the “ALKALINE PHOSPHATASE Change from Baseline, Median” value (0.10 mg/kg/day, DW20) was −23.0 and the “ALKALINE PHOSPHATASE, Mean (SD)” value (0.10 mg/kg/day, DW20) was 137.1 (82.59). The “ALKALINE PHOSPHATASE, Median” value (0.10 mg/kg/day, DW20) was 107.0, the “ALT (SGPT) Change … (SD)” value (0.10 mg/kg/day, DW20) was −8.2 (37.70) and the “ALT (SGPT) Change from Baseline, Median” value (0.10 mg/kg/day, DW20) was −9.0. For the same compound, the “ALT (SGPT), Mean (SD)” value (0.10 mg/kg/day, DW20) was 41.3 (29.36), the “ALT (SGPT), Median” value (0.10 mg/kg/day, DW20) was 29.0 and the “AST (SGOT) Change … (SD)” value (0.10 mg/kg/day, DW20) was −4.9 (24.96). For the same compound, the “AST (SGOT) Change from Baseline, Median” value (0.10 mg/kg/day, DW20) was −2.5 and the “AST (SGOT), Mean (SD)” value (0.10 mg/kg/day, DW20) was 34.9 (19.82).
